One substance from patent publication US20030003492A1, “Colorimetric nanocrystal sensors, methods of making, and use thereof” (priority 2001, published 2003) can be followed below.

The nature of assay [1]: Binding to simple sugars like glucosamine. The following applies: much lower affinity than for lipid A.
Assay [2] in a line: Binding to lipid A. The note with it: binding of lipid A; read-out: dissociation constant.

“tetratryptophan ter-cyclopentane [TWTCP]”: the Kd was approximately 20 µM in assay [1] and 592 nM in assay [2].
